Assay results published in patent US9296691B2, “Inhibitors of p75 receptor and their uses” (Horacio Uri Saragovi, priority 2010, dated 2016).

Key:
[1] = system: retinal ganglion cells (RGCs); test: Glaucoma (episcleral vein cauterization) model, quantification of surviving RGCs; assay type: in vivo; settings: rat glaucoma, intravitreal injections days 14 and 21, endpoint day 42; contralateral normal eye = 100%; control glaucoma 74-77%
Protocol: Wistar rats (female, 250-300 g; Charles River) were kept in a 12 hours dark-light cycle with food and water ad libitum. All animal manipulations were performed between 9 AM and 12 AM. Deep anesthesia was used during cauterization (induction of glaucoma), ON transection, fluorogold labeling, intraocular injection procedures, Optical Coherence Tomography measurements, and euthanasia (ketamine, xylazine, acepromazine injected intraperitoneally: 50/5/1 mg/kg, as per IACUC recommendations). For measuring IOP, light anesthesia was used (a gas mixture of Oxygen, 2% isofluorane mixture, at a rate of 2.5 liter/min, as per IACUC recommendations).
The episcleral vein cauterization (EVC) model of rat (Shi et al., 2007; Shi et al., 2008) was used. […]
For studies in the glaucoma animal model the injections were performed at days 14 and 21 after cauterization. […] Thus, in this paradigm there is pre-existing damage for 14 days before treatment (measured at ˜8% RGC death (Shi et al., 2007; Shi et al., 2008)); and the treatments require long-lived efficacy in the constant presence of retinal stress due to high IOP. […]
Quantification of labeled RGCs was performed as reported (Shi et al., 2007; Shi et al., 2008). […] Pictures for each freshly flat-mounted retina were taken using a Zeiss fluorescence microscope (Carl Zeiss Meditec, Jena, Germany), with 12 pictures/retina at 20× magnification. […]

[2] = system: nnr5 cells; test: Pro-NTF killing assay (MTT), nnr5 cells; assay type: cell-based; settings: pro-NTF 50 nM + I-B 20 μM, 72 hours
Protocol: The effect of I-B on the pro-apoptotic function of pro-NGF or pro-BDNF was tested in functional MTT assays measuring cell metabolism (FIG. 1B).
Cells (5,000 cells/well) were cultured in 96-well plates (Falcon, Lincoln Park, N.J.) in normal culture media (RPMI1640, Hepes, Glutamine, 5% serum). Wells were supplemented with NGF, BDNF, pro-NGF, or pro-BDNF (Alomone Labs) (50 nM final), in the presence or absence of I-B (20 μM final). Wells containing all culture conditions but no cells were used as blanks. The growth/survival profile of the cells was quantified using MTT (Sigma) 72 hours after plating. Optical density readings of MTT were done in a Benchmark Plus microplate Spectrophotometer (BioRad) at 595 nm with blanks subtracted.

[3] = molecular target: T1, TrkA-Fc (Homo sapiens, UniProt P04629); test: Competitive ELISA, TrkA-Fc binding to immobilized NGF (selectivity control)
T1 construct: purchased R&D
Protocol: The effect of compounds I-B and LM-24 on the binding between NGF and p75 was tested in competitive ELISA assays, where the antagonists prevent soluble p75 from binding to immobilized NGF. The selectivity of antagonism was evaluated by lack of effect upon NGF-TrkA or lack of effect between NGF and anti-NGF monoclonal antibody (mAb) NGF30 interactions (FIG. 1A).
Competitive ELISAs were performed as described (Saragovi et al., 1998). The procedure immobilized 50 ng/well NGF, or pro-NGF (Alomone Labs, Israel) onto polystyrene 96-well microtest plates, with washing and blocking with binding buffer (BB; phosphate buffered saline containing 0.5% bovine serum albumin). The following primary reagents in BB were added: recombinant chimeric p75-Fc or recombinant chimeric TrkA-Fc (R&D), or anti-NGF mAb NGF30 (Saragovi et al., 1998); each at 50 nM. The competitors I-B and the other test compounds (or control LM-24) were added at the indicated concentrations, and the plates were incubated for 45 minutes. After washing 3× in BB, HRP-conjugated secondary reagents (Sigma) were added for 30 min (goat anti-human Fc for p75-Fc and for TrkA-Fc; and goat anti-rat Ab for NGF30 mAb), and then wells were washed 3× in BB and 1× in PBS. Peroxidase activity was determined colorimetrically using the substrate TMB One Solution (Promega). The reaction was stopped with 0.5 N H2SO4 and the plates were read at 450 nm (Benchmark Plus, Bio-Rad). Assays were repeated n>4 times, with replicates of 4 wells each assay. […] Wells with no NGF immobilized but with all other reagents added were treated as background (<15% of maximal signals) and standardized to 0% binding.

T1 sequence (P04629 33-423 limits assumed): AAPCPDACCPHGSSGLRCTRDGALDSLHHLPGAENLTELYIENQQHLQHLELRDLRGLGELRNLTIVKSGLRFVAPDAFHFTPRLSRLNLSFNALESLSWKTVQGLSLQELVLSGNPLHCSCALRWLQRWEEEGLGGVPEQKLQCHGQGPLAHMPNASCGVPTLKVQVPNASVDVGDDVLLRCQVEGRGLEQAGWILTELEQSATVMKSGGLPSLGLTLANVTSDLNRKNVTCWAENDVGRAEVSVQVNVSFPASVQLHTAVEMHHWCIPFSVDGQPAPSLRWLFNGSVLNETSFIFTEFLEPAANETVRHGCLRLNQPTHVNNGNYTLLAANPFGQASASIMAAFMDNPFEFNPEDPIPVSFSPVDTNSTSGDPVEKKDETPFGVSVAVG

For CC(C)NC(=O)N(C(=O)Cn1cnc2c1c(=O)n(C)c(=O)n2C)C(C)C [I-B, 1,3-Diisopropyl-1-[2-(1,3-dimethyl-2,6-dioxo-1,2,3,6-tetrahydro-purin-7-yl)-acetyl]-urea], the RGCs surviving [1] was 92%, the “cell viability (MTT) in presence of pro-NGF or pro-BDNF” value [2] was “prevented the loss of cell viability” and the “TrkA-Fc binding AVERAGE” value ([3]; binding to immobilized NGF, no cpd = 100%, TrkA-Fc 50 nM, as described for FIG. 1A) was 107%. For the same molecule, the “effect on binding of TrkA to NGF” value ([3]; competitive ELISA, FIG. 1A, compound at 30 μM) was “did not interfere”.
